Experimental data published in ChEMBL document CHEMBL1201862, “PubChem BioAssay data set” (2004).
Calls of active or inactive are those of the source.

Tests used:
[1] = HEp-2 cell cytotoxicity, dose response, cytotoxicity control for RSV inhibitor project, HTS (AID 2410); assay type: functional; details: human respiratory syncytial virus
[2] = system: Vero; assay: cells; assay type: functional, cell-based; details: Chlorocebus sabaeus
[3] = cells
[4] = target: 72 kDa type IV collagenase (Homo sapiens, UniProt P08253); assay: Dose Response validation of uHTS RPN11 inhibitor hits using a MMP-2 Fluorescence assay.; assay type: functional
[5] = target: T1, Insulin-degrading enzyme (Homo sapiens, UniProt P14735); assay: Dose Response: Fluorescence polarization-based cell-based high throughput dose response assay for inhibitors of insulin-degrading enzyme (IDE). [Related pubchem assays: 434962 (Primary screen (IDE inhibitors in singlicate)), 449730 (Counterscreen (Cytotoxicity in triplicate)), 435028 (Confirmation (IDE inhibitors in triplicate)), 434984 (Summary …; assay type: functional
T1 sequence (P14735 whole entry): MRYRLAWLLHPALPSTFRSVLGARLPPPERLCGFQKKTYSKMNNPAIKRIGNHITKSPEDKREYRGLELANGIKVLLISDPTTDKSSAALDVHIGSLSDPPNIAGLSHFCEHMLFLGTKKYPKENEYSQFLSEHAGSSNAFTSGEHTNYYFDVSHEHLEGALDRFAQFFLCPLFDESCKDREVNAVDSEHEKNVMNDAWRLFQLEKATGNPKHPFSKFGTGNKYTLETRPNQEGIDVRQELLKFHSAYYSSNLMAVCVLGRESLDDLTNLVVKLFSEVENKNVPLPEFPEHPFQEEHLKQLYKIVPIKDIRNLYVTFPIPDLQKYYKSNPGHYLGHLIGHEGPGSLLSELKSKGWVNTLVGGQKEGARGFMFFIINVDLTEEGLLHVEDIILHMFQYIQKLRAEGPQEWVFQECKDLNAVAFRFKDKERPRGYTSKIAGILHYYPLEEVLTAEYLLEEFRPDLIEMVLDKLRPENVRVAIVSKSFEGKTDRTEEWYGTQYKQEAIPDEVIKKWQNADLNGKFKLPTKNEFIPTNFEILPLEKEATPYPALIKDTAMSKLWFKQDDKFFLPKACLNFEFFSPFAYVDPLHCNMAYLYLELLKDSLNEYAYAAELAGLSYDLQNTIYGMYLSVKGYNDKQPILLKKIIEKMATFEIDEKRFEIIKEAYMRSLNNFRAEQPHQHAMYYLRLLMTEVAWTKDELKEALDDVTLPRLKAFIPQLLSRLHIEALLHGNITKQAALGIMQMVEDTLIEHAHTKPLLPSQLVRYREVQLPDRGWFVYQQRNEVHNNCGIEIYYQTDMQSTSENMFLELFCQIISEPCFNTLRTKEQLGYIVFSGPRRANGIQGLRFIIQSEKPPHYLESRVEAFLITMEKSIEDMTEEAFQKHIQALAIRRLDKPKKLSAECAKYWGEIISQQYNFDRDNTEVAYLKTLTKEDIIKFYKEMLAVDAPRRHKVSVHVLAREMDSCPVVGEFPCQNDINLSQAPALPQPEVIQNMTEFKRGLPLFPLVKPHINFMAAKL

[6] = Counterscreen for IDE inhibitors: Luminescence-based cell-based high throughput dose response assay to identify compounds that are cytotoxic to HEK cells. [Related pubchem assays: 434962 (Primary screen (IDE inhibitors in singlicate)), 449730 (Counterscreen (Cytotoxicity in triplicate)), 435028 (Confirmation (IDE inhibitors in triplicate)) …; assay type: functional; details: HEK293
[7] = target: Prothrombin (Bos taurus, UniProt P00735); assay: thrombin inhibition, dose response, biochemical, fluorescence polarization, uHTS hits (AID 602369); assay type: functional
[8] = target: 26S proteasome non-ATPase regulatory subunit 14 (Homo sapiens, UniProt O00487); assay: inhibition of proteasome subunit RPN11 – biochemical, fluorescence polarization, uHTS hits, confirmation (AID 602368); assay type: functional
[9] = target: Heat shock cognate 71 kDa protein (Homo sapiens, UniProt P11142); assay: In Vitro Hsc70 Dose Response Fluorescence Polarization Assay. [Related pubchem assays: 1072 ]
[10] = target: Glyceraldehyde-3-phosphate dehydrogenase (Homo sapiens, UniProt P04406)
[11] = target: Heat shock 70 kDa protein 1A (Homo sapiens, UniProt P0DMV8); assay: Hsp70 inhibitors, SAR follow-up, biochemical, fluorescence polarization (AID 1072)
[12] = target: Large T antigen (Simian virus 40, UniProt P03070); assay type: functional, Betapolyomavirus macacae;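 also: Confirmatory-stage PubChem screen for compounds that inhibit SV40 T antigen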
[13] = system: INS1; assay: beta cell apoptosis inhibitors, cytokine rescue, dose response, luminescence, retest (AID 449756); assay type: functional, cell-based; details: Rattus norvegicus, INS1;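 also: cell death triggered by IL-1 beta plus TNF-alpha plus IFN-gamma mixture; protective hits raise ATP signal compared with cytokine alone wells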
[14] = target: T2, DNA repair and recombination protein RAD54-like (Homo sapiens, UniProt Q92698); assay: inhibitors of human RAD54 branch migration, confirmation, biochemical, fluorescence, cherry-picked samples, dose series (AID 651657); assay type: functional
T2 sequence (Q92698 whole entry): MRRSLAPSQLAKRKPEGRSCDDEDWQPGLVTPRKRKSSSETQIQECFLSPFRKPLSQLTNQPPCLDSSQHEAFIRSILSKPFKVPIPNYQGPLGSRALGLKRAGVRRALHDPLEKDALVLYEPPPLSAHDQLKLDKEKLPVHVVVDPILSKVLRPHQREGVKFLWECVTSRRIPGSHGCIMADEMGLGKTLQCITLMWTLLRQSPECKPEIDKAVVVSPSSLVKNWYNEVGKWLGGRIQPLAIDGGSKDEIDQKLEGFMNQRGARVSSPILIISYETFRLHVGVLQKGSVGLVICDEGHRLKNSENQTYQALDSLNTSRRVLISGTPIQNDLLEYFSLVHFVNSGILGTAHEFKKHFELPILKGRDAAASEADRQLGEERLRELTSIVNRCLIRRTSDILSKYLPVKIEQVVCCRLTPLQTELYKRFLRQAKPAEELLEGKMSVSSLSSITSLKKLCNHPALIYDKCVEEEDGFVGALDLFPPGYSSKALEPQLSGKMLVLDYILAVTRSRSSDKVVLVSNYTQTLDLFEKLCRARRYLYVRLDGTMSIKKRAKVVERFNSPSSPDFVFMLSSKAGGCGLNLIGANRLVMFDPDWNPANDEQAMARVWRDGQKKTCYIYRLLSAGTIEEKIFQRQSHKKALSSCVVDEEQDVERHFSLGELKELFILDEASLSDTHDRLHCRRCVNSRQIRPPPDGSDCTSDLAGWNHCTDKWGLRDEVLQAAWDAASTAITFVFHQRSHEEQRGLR

[15] = system: H4; assay: Luminescence Cell-Based Dose Response HTS to Identify Activators of 5'UTR Stem-Loop Driven Prion Protein mRNA Translation in H4 Neuroglioblastoma Cells. [Related pubchem assays: 1829 (Project Summary), 1814 (Primary HTS)]; assay type: functional; details: Homo sapiens
[16] = target: T3, Short transient receptor potential channel 4 (Mus musculus, UniProt Q9QUQ5); assay: mouse TRPC4 channel inhibitors, dose response, cell-based, HEK293 TRPC4/mu-opioid, Fluo-4 calcium (AID 434942); assay type: functional;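 also: potency of inhibitors blocking the TRPC4 calcium response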
T3 sequence (Q9QUQ5 whole entry): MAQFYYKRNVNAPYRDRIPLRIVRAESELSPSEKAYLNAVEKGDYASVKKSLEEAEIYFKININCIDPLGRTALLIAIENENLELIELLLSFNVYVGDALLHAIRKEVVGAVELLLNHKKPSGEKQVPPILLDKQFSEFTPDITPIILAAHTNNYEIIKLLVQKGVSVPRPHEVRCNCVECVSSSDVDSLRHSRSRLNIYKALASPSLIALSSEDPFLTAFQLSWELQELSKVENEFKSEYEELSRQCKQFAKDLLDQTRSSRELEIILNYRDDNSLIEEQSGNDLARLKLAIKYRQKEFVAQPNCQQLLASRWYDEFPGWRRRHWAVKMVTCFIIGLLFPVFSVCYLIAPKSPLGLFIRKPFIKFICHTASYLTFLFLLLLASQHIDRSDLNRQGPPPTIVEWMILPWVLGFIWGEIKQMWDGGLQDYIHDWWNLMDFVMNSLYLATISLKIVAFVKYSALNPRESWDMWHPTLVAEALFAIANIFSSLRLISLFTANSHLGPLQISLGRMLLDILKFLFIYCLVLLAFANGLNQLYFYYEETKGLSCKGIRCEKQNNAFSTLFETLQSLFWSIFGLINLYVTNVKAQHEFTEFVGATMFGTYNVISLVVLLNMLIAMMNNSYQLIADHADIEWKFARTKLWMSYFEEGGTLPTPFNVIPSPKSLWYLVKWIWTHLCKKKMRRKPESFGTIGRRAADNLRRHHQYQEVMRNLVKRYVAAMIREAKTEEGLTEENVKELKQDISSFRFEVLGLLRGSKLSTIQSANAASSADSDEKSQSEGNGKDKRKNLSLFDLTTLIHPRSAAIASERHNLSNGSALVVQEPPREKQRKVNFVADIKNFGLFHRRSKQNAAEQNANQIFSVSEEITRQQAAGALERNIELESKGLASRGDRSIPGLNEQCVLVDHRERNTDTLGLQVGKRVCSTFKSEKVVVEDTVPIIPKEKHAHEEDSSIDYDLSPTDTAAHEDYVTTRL

[17] = cytotoxicity toward NIH3T3 fibroblasts, dose response, counter-screen, cell-based, ATP luminescence, mouse fibroblasts (AID 2010); assay type: functional;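 also: cells exposed to compound for about 90 hours before reading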
[18] = target: T4, Bcl-2-like protein 10 (Homo sapiens, UniProt Q9HD36); assay: displacers of TR3 peptide from Bcl-B, primary screen, selectivity assay for Bfl-1 inhibitor project, biochemical, fluorescence polarization, FITC-TR3 peptide (AID 748);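 also: fluorescence polarization from a fluorescein-labelled TR3 peptide binding purified Bcl-B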
T4 sequence (Q9HD36 whole entry): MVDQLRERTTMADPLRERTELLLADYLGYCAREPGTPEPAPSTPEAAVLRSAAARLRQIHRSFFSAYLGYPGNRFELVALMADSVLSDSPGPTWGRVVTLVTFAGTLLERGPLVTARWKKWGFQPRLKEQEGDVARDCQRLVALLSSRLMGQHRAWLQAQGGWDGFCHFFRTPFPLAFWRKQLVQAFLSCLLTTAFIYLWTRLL

[19] = Luminescence Cell-Based Dose Confirmation HTS to Identify Activators of 5'UTR Stem-Loop Driven Alpha-Synuclein mRNA Translation in H4 Neuroglioblastoma Cells. [Related pubchem assays: 1829 (Project Summary), 1814 (Primary HTS)]; assay type: functional
[20] = target: T5, DNA repair protein RAD52 homolog (Homo sapiens, UniProt P43351); assay type: functional, biochemical
T5 sequence (P43351 whole entry): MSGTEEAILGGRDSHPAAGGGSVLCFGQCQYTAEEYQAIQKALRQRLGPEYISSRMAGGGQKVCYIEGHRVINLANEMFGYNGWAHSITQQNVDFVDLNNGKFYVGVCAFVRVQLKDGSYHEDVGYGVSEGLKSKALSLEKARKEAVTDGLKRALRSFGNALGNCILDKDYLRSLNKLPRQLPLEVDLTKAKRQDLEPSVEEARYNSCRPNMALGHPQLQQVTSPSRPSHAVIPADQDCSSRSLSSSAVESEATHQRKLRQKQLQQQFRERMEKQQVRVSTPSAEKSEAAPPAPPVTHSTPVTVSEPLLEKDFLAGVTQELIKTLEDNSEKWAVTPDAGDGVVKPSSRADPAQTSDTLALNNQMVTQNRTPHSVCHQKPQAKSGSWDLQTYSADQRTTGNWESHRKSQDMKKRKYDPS

[21] = Luminescence Cell-Based Dose Response HTS to Identify Activators of Luciferase Translation or Activity in H4 […] Cells. [Related pubchem assays: 1829 (Project Summary), 1814 (Primary HTS)]; assay type: functional
[22] = target: Luciferin 4-monooxygenase (Photinus pyralis, UniProt P08659); assay: Counter Screen for Luciferase-based Assay Positives. [Related pubchem assays: 620, 618, 411 ]
[23] = system: HT-1080; assay: cytotoxicity in HT1080 fibrosarcoma cells, cell-based, fluorescence readout (AID 620); assay type: functional; details: Homo sapiens
[24] = inhibitors of intracellular T. cruzi replication, confirmation, NIH3T3 host cells, beta-gal luminescence (AID 2044); assay type: functional, cell-based;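 also: intracellular parasites grown in NIH/3T3 mouse fibroblasts as host cells; luminescent beta-galactosidase reporter signal from transgenic T. cruzi replicating inside host cells; inhibitors lower the luminescence signal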

Heat shock cognate 71 kDa protein, sequence (P11142 whole entry): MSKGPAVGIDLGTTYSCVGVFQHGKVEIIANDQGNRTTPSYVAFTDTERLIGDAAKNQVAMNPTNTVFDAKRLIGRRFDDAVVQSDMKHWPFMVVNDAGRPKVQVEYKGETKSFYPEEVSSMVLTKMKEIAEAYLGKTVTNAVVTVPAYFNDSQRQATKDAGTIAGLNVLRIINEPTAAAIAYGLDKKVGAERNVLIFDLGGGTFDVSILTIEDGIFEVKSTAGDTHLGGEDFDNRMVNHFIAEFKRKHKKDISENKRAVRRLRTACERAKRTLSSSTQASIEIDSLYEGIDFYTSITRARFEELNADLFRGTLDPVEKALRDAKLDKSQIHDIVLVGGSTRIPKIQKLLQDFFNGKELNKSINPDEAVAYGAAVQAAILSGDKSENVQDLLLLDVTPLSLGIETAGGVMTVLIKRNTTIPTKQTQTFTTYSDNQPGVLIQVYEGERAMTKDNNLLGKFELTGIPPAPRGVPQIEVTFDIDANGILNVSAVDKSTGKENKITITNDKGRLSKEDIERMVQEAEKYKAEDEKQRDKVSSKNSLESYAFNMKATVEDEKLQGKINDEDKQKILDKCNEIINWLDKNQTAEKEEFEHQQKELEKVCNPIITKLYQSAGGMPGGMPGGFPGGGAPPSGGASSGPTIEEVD
26S proteasome non-ATPase regulatory subunit 14, sequence (O00487 whole entry): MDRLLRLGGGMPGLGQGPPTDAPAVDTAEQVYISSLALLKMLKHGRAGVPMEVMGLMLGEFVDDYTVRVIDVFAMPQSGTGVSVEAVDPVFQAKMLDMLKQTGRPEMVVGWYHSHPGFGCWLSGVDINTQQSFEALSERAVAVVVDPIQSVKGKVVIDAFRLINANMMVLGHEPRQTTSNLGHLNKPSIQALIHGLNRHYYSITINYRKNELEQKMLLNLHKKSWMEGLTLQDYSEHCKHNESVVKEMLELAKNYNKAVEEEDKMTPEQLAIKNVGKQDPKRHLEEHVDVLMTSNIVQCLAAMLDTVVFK
Large T antigen, sequence (P03070 whole entry): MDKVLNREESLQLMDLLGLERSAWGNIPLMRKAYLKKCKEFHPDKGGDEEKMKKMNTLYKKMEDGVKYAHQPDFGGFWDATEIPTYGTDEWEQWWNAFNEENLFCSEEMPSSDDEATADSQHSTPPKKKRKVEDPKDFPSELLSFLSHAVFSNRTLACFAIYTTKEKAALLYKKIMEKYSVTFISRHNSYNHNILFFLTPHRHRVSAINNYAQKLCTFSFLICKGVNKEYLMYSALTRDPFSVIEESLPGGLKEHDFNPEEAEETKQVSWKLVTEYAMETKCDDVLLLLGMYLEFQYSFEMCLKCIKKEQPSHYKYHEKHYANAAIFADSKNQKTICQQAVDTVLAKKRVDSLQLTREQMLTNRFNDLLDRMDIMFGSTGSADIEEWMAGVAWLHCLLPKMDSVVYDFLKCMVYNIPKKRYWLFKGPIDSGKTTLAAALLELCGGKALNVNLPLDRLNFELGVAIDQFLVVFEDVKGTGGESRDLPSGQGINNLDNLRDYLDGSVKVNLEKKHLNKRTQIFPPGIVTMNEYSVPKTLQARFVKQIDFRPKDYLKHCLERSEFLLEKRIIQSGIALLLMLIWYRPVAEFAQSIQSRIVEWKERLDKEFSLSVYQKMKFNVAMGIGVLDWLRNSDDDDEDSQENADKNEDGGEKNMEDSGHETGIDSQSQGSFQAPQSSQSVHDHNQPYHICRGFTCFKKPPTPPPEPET
Luciferin 4-monooxygenase, sequence (P08659 whole entry): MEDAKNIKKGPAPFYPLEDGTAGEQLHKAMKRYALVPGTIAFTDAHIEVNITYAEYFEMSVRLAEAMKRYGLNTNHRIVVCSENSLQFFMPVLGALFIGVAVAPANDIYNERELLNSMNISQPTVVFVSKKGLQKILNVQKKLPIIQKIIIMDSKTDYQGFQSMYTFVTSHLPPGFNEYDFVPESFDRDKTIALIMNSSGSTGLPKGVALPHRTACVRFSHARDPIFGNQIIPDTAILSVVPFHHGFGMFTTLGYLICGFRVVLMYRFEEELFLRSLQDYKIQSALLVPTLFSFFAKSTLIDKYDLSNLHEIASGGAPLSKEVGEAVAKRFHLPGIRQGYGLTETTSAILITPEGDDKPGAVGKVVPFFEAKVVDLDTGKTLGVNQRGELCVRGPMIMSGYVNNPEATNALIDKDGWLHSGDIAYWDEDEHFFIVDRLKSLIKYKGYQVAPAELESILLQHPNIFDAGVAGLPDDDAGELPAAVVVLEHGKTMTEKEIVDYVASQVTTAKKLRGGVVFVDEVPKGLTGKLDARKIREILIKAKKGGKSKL
Heat shock 70 kDa protein 1A, sequence (P0DMV8 whole entry): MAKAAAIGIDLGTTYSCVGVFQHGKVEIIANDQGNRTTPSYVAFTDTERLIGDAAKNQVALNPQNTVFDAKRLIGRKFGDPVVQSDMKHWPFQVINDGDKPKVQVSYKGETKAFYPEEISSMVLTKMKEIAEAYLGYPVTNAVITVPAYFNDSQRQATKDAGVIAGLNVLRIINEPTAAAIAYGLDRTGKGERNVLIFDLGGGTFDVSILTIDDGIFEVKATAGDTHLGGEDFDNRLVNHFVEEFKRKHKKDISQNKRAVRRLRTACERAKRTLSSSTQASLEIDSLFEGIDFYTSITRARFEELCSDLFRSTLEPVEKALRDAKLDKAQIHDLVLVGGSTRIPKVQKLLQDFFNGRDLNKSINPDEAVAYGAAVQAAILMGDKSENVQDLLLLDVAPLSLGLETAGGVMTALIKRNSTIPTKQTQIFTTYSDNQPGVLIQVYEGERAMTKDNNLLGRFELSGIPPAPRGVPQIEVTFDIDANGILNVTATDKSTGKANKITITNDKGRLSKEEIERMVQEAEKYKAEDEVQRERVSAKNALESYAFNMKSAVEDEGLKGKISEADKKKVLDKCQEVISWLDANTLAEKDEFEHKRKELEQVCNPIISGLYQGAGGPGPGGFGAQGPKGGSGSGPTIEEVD
Glyceraldehyde-3-phosphate dehydrogenase, sequence (P04406 whole entry): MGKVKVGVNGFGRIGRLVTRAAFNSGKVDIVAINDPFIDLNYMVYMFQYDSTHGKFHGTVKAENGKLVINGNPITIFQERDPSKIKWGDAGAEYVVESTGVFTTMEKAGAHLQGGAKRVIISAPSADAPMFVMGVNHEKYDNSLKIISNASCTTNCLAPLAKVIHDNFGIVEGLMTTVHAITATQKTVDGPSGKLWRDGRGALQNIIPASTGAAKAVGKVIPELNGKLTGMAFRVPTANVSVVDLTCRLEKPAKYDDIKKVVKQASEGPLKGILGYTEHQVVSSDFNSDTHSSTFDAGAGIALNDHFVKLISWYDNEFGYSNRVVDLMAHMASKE
72 kDa type IV collagenase, sequence (P08253 whole entry): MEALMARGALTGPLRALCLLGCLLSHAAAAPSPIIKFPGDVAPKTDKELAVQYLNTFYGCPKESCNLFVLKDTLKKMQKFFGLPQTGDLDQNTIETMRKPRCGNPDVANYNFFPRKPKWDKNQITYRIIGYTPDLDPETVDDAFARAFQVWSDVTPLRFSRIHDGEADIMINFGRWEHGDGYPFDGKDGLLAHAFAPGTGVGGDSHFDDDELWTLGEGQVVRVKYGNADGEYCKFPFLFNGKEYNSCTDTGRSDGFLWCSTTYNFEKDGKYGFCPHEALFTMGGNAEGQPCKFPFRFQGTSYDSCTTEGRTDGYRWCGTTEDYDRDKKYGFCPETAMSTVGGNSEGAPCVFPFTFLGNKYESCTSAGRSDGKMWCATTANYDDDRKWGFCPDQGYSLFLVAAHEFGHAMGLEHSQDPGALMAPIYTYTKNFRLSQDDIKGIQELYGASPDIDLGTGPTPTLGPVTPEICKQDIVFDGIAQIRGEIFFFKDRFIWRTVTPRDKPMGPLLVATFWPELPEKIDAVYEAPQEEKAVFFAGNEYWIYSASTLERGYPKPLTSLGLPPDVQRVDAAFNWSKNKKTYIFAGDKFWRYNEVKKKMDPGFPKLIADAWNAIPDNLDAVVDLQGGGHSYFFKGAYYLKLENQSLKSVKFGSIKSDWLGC

Cc1ccc(C(=O)Nc2ccccc2SCC2CSc3nc4ccccc4c(=O)n32)cc1 (centres undefined)
CC50 [1]: 27.7 µM (active)
IC50 [2]: 10.4 µM (active)
IC50 [3]: 11.4 µM (active)

COc1ccc(/N=C\c2oc3ccc4ccccc4c3c2O)cc1
IC50 [4]: > 100 µM (inactive)
IC50 [5]: > 55.9 µM (not active)
IC50 [6]: > 55.7 µM (not active)
IC50 [7]: 3.81 µM (active)
IC50 [8]: 10 µM (active)

O=C(O)/C=C/c1c2ccc(=O)c(O)c-2oc2c(O)c(O)ccc12
IC50 [9]: 2.73 µM (active)
IC50 [10]: 15.8 µM (active)
IC50 [11]: 0.332 µM (active)

Oc1ccc(Nc2nc(N3CCCC3)c3ccccc3n2)cc1
IC50 [12]: 4.72 µM (active)
AC50 [13]: 7.85 µM (active)
AC50 [14]: 6.91 µM (active)
EC50 [15]: > 120 µM (not active)
EC50 [16]: 5.96 µM (active)
EC50 [17]: 9.1 µM (active)
IC50 [18]: 43.9 µM (active)
EC50 [19]: > 120 µM (not active)
AC50 [20]: 13.3 µM (active)
EC50 [21]: 12.9 µM (active)
EC50 [22]: < 0.2 µM (active)
EC50 [23]: 25.7 µM (active)
EC50 [24]: 2.11 µM (active)
